According to US7462600B2, “Macrolides” (Pfizer Inc, priority 2004, dated 2008):
Values after ≈ are worked out from the molar mass of the structure shown. Where two headings read alike, the source gives them in different places.

Key:
Format in all cases: cell-based
[1] = tested on: Haemophilus influenzae 1218; assay: MIC, microtiter broth dilution (NCCLS M100-S14), H. influenzae 1218 (susceptible)
Method in brief: (§1)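 Broth microdilution MICs in microtiter trays, run and interpreted per NCCLS M100-S14. Compounds were dissolved in DMSO as 40 mg/ml stocks.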

[2] = tested on: Streptococcus pneumoniae 1016; assay: MIC, microtiter broth dilution (NCCLS M100-S14), S. pneumoniae 1016 (susceptible)
Method in brief: as §1

[3] = tested on: Streptococcus pneumoniae 1095; details: microtiter broth dilution
Method in brief: as §1

[4] = tested on: Streptococcus pneumoniae 1175; details: microtiter broth dilution
Method in brief: as §1

[5] = tested on: Streptococcus pyogenes 1079; assay: MIC, microtiter broth dilution (NCCLS M100-S14), S. pyogenes 1079 (ermB)
Method in brief: as §1

[6] = H. influenzae 1218 (susceptible)
[7] = S. pneumoniae 1016 (susceptible)

| SMILES | MIC H. influenzae 1218 ([1]; Haemophilus influenzae 1218) | MIC S. pneumo. 1016 ([2]; Streptococcus pneumoniae 1016) | MIC S. pneumo. 1095 ([3]; Streptococcus pneumoniae 1095) | MIC S. pneumo. 1175 ([4]; Streptococcus pneumoniae 1175) | MIC S. pyogenes 1079 ([5]; Streptococcus pyogenes 1079) | MIC H. influenzae 1218 [1, 6] | MIC S. pneumo. 1016 [2, 7] | MIC S. pneumo. 1095 ([3]; S. pneumoniae 1095 (ermB)) | MIC S. pneumo. 1175 ([4]; S. pneumoniae 1175 (mefA)) | MIC S. pyogenes 1079 ([5]; S. pyogenes 1079 (ermB)) |
| --- | --- | --- | --- | --- | --- | --- | --- | --- | --- | --- |
| CC[C@H]1OC(=O)[C@H](C)[C@@H](OC(=O)N2CCCC2C)[C@H](C)[C@@H](O[C@@H]2O[C@H](C)C[C@H](N(C)C)[C@H]2O)[C@](C)(OC)C[C@@H](C)C(=O)[C@H](C)[C@H]2N(CC3CN(Cc4cccc5cccnc45)C3)C(=O)O[C@]12C (stereo partly shown) [Example 5.04] | 1 µg/mL (≈ 1.07 µM) | <0.06 µg/mL | <0.06 µg/mL | <0.06 µg/mL | 4 µg/mL (≈ 4.27 µM) | – | – | – | – | – |
| CC[C@H]1OC(=O)[C@H](C)[C@@H](OC(=O)N2CCCC2c2cccc(F)c2)[C@H](C)[C@@H](O[C@@H]2O[C@H](C)C[C@H](N(C)C)[C@H]2O)[C@](C)(OC)C[C@@H](C)C(=O)[C@H](C)[C@H]2N(CC3CN(Cc4c[nH]c5ncccc45)C3)C(=O)O[C@]12C (stereo partly shown) [Example 5.05, 3-descladinosyl-11,12-dideoxy-6-O-methyl-12,11-(oxycarbonyl-(1-((1H-pyrrolo[2,3-b]pyridin-3-yl)-methyl)-(azetidin-3-yl)-methyl)-imino)-3-((2-(3-fluorophenyl)-pyrrolidine)-1-carbonyl)-erythromycin A] | 8 µg/mL (≈ 7.96 µM) | <0.06 µg/mL | 2 µg/mL (≈ 1.99 µM) | 0.5 µg/mL (≈ 0.497 µM) | 4 µg/mL (≈ 3.98 µM) | – | – | – | – | – |
| CC[C@H]1OC(=O)[C@H](C)[C@@H](OC(=O)N2CCCC2c2cccc(F)c2)[C@H](C)[C@@H](O[C@@H]2O[C@H](C)C[C@H](N(C)C)[C@H]2O)[C@](C)(OC)C[C@@H](C)C(=O)[C@H](C)[C@H]2N(CC3CN(Cc4c[nH]c5ncccc45)C3)C(=O)O[C@]12C (stereo partly shown) [Example 5.06, 3-descladinosyl-11,12-dideoxy-4-O-methyl-12,11-(oxycarbonyl-(1-((1H-pyrrolo[2,3-b]pyridin-3-yl)-methyl)-(azetidin-3-yl)-methyl)-imino)-3-((2-(3-fluorophenyl)-pyrrolidine)-1-carbonyl)-erythromycin A] | 2 µg/mL (≈ 1.99 µM) | <0.06 µg/mL | <0.06 µg/mL | <0.06 µg/mL | 0.25 µg/mL (≈ 0.249 µM) | – | – | – | – | – |
| CC[C@H]1OC(=O)[C@H](C)[C@@H](OC(=O)N2CCCC2)[C@H](C)[C@@H](O[C@@H]2O[C@H](C)C[C@H](N(C)C)[C@H]2O)[C@](C)(OC)C[C@@H](C)C(=O)[C@H](C)[C@H]2N(CC3CN(C(=O)c4cccc5cccnc45)C3)C(=O)O[C@]12C [Example 5.07, 2-R^2: quinoline-8-carboxyl; R^#: pyrrolidin-1-yl] | 4 µg/mL (≈ 4.27 µM) | <0.06 µg/mL | 0.25 µg/mL (≈ 0.267 µM) | <0.06 µg/mL | 16 µg/mL (≈ 17.1 µM) | – | – | – | – | – |
| CC[C@H]1OC(=O)[C@H](C)[C@@H](OC(=O)N2CCCC2)[C@H](C)[C@@H](O[C@@H]2O[C@H](C)C[C@H](N(C)C)[C@H]2O)[C@](C)(OC)C[C@@H](C)C(=O)[C@H](C)[C@H]2N(CC3CN(Cc4cccc5cccnc45)C3)C(=O)O[C@]12C [Example 5.08, 2-R^2: (quinolin-8-yl)methyl; R^#: pyrrolidin-1-yl] | 2 µg/mL (≈ 2.17 µM) | <0.06 µg/mL | 0.25 µg/mL (≈ 0.271 µM) | <0.06 µg/mL | 16 µg/mL (≈ 17.4 µM) | – | – | – | – | – |
| CC[C@H]1OC(=O)[C@H](C)[C@@H](OC(=O)N2CCCC2)[C@H](C)[C@@H](O[C@@H]2O[C@H](C)C[C@H](N(C)C)[C@H]2O)[C@](C)(OC)C[C@@H](C)C(=O)[C@H](C)[C@H]2N(CC3CN(Cc4nccc5ccccc45)C3)C(=O)O[C@]12C [Example 5.09, 2-R^2: (isoquinolin-1-yl)methyl; R^#: pyrrolidin-1-yl] | 2 µg/mL (≈ 2.17 µM) | <0.06 µg/mL | 1 µg/mL (≈ 1.08 µM) | <0.06 µg/mL | 64 µg/mL (≈ 69.4 µM) | – | – | – | – | – |
| CC[C@H]1OC(=O)[C@H](C)[C@@H](OC(=O)N2CCCC2)[C@H](C)[C@@H](O[C@@H]2O[C@H](C)C[C@H](N(C)C)[C@H]2O)[C@](C)(OC)C[C@@H](C)C(=O)[C@H](C)[C@H]2N(CC3CN(Cc4c[nH]c5ncccc45)C3)C(=O)O[C@]12C [Example 5.10, 3-descladinosyl-11,12-dideoxy-6-O-methyl-12,11-(oxycarbonyl-(1-((1H-pyrrolo[2,3-b]pyridin-3-yl)-methyl)-(azetidin-3-yl)-methyl)-imino)-3-(pyrrolidine-1-carbonyl)-erythromycin A] | 1 µg/mL (≈ 1.1 µM) | <0.06 µg/mL | <0.06 µg/mL | <0.06 µg/mL | 2 µg/mL (≈ 2.2 µM) | – | – | – | – | – |
| CC[C@H]1OC(=O)[C@H](C)[C@@H](OC(=O)N2CCCC2)[C@H](C)[C@@H](O[C@@H]2O[C@H](C)C[C@H](N(C)C)[C@H]2O)[C@](C)(OC)C[C@@H](C)C(=O)[C@H](C)[C@H]2N(CC3CN(Cc4nc5ccccc5[nH]4)C3)C(=O)O[C@]12C [Example 5.11, 2-R^2: (1H-benzo[d]imidazol-2-yl)methyl; R^#: pyrrolidin-1-yl] | 1 µg/mL (≈ 1.1 µM) | <0.06 µg/mL | 1 µg/mL (≈ 1.1 µM) | <0.06 µg/mL | 32 µg/mL (≈ 35.1 µM) | – | – | – | – | – |
| CC[C@H]1OC(=O)[C@H](C)[C@@H](OC(=O)N2CCCC2)[C@H](C)[C@@H](O[C@@H]2O[C@H](C)C[C@H](N(C)C)[C@H]2O)[C@](C)(OC)C[C@@H](C)C(=O)[C@H](C)[C@H]2N(CC3CN(Cc4nc5ccccc5s4)C3)C(=O)O[C@]12C [Example 5.14, 2-R^2: (benzo[d]thiazol-2-yl)methyl; R^#: pyrrolidin-1-yl] | 4 µg/mL (≈ 4.31 µM) | <0.06 µg/mL | 4 µg/mL (≈ 4.31 µM) | <0.06 µg/mL | 32 µg/mL (≈ 34.5 µM) | – | – | – | – | – |
| CC[C@H]1OC(=O)[C@H](C)C(=O)[C@H](C)[C@@H](O[C@@H]2O[C@H](C)C[C@H](N(C)C)[C@H]2O)[C@](C)(OC)C[C@@H](C)C(=O)[C@H](C)[C@H]2N(C3CCN(Cc4cccc5[nH]cnc45)C3)C(=O)O[C@]12C.O=CO (stereo partly shown) [Example 8.01, (1H-benzo[d]imidazo-4-yl)methyl] | – | – | – | – | – | 8 µg/mL | <0.06 µg/mL | >64.00 µg/mL | 0.25 µg/mL | >64.00 µg/mL |
| CCC1OC(=O)C(C)C(=O)C(C)C(OC2OC(C)CC(N(C)C)C2O)C(C)(OC)CC(C)C(=O)C(C)C2N(C3CCN(Cc4cccc5ncccc45)C3)C(=O)OC12C [Example 9.02, 3-descladinosyl-11,12-dideoxy-6-O-methyl-3-oxo-12,11-(oxycarbonyl-(1-((quinolin-5-yl)-methyl)-(R)-pyrrolidin-3-yl)-imino)-erythromycin A] | – | – | – | – | – | 0.5 µg/mL (≈ 0.608 µM) | <0.06 µg/mL | <0.06 µg/mL | 0.12 µg/mL (≈ 0.146 µM) | 8 µg/mL (≈ 9.72 µM) |
| CCC1OC(=O)C(C)C(=O)C(C)C(OC2OC(C)CC(N(C)C)C2O)C(C)(OC)CC(C)C(=O)C(C)C2N(C3CCN(Cc4c[nH]c5ncccc45)C3)C(=O)OC12C [Example 9.03, 3-descladinosyl-11,12-dideoxy-6-O-methyl-3-oxo-12,11-(oxycarbonyl-(1-((1H-pyrrolo[2,3-b]pyridin-3-yl)-methyl)-(R)-pyrrolidin-3-yl)-imino)-erythromycin A] | – | – | – | – | – | 0.12 µg/mL (≈ 0.148 µM) | <0.06 µg/mL | <0.06 µg/mL | 0.5 µg/mL (≈ 0.616 µM) | 1 µg/mL (≈ 1.23 µM) |
| CCC1OC(=O)C(C)C(=O)C(C)C(OC2OC(C)CC(N(C)C)C2O)C(C)(OC)CC(C)C(=O)C(C)C2N(C3CCN(Cc4cnc5ccccc5c4)C3)C(=O)OC12C (stereo not shown) [Example 9.04, (quinolin-3-yl)methyl] | – | – | – | – | – | 0.5 µg/mL (≈ 0.608 µM) | <0.06 µg/mL | <0.06 µg/mL | <0.06 µg/mL | 32 µg/mL (≈ 38.9 µM) |
| CCC1OC(=O)C(C)C(=O)C(C)C(OC2OC(C)CC(N(C)C)C2O)C(C)(OC)CC(C)C(=O)C(C)C2N(C3CCN(Cc4ccnc5ncccc45)C3)C(=O)OC12C [Example 9.05, 3-descladinosyl-11,12-dideoxy-6-O-methyl-3-oxo-12,11-(oxycarbonyl-(1-((1,8-naphthyridin-4-yl)-methyl)-(R)-pyrrolidin-3-yl)-imino)erythromycin A] | – | – | – | – | – | 8 µg/mL (≈ 9.71 µM) | <0.06 µg/mL | 0.5 µg/mL (≈ 0.607 µM) | 0.5 µg/mL (≈ 0.607 µM) | 8 µg/mL (≈ 9.71 µM) |
